Source: patent publication US20240409536A1, “COMPOUNDS AND METHODS FOR MODULATING SPLICING” (REMIX THERAPEUTICS INC., priority 2021, published 2024)
Read-outs that look alike come from different tables or passages of the source.

What was measured:
SMN2 mRNA = experiment: Gene panel canonical junction qPCR assay, SMN2 CJ mRNA decrease; format: cell-based, human; settings: Homo sapiens
Method: (§1) Compounds described herein were used to modulate RNA transcript abundance in cells. The expression of a target mRNA was measured by detecting the formation of an exon-exon junction in the canonical transcript (CJ). A compound mediated exon-inclusion event was detected by observing an increase in formation of a new junction with an alternative exon (AJ). Real-time qPCR assays were used to detect these splicing switches and interrogate the potency of various compounds towards different target genes. A high-throughput real time quantitative PCR (RT-qPCR) assay was developed to measure these two isoforms of the mRNA (CJ and AJ) for exemplary genes, such as HTT, SMN2, and MYB, together with a control housekeeping gene, GAPDH or GUSB or PPIA, used for normalization. Briefly, the A673 or K562 cell line was treated with various compounds described herein (e.g., compounds of Formula (I), (I), or (III)). After treatment, the levels of the HTT, MYB, or SMN2 mRNA targets were determined from each sample of cell lysate by cDNA synthesis followed by qPCR.
(§2) The data analysis was performed by first determining the ΔCt vs the housekeeper gene. This ΔCt was then normalized against the DMSO control (ΔΔCt) and converted to RQ (relative quantification) using the 2^(−ΔΔCt) equation. The RQ were then converted to a percentage response by arbitrarily setting an assay window of 3.5 and 4.0 ΔCt for HTT-CJ and MYB-CJ respectively and an assay window of 9 and 3 ΔCt for HTT-AJ and MYB-AJ in 96 well format (50,000 K562 cells/well and 15,000 A673 cells per well) and an assay window of 3 and 4 ΔCt for HTT-CJ and MYB-CJ respectively and an assay window of 5 and 3 ΔCt for HTT-AJ and MYB-AJ respectively in 384 well format (8,000 K562 cells/well example). […] The percentage response was then fitted to the 4 parametric logistic equation to evaluate the concentration dependence of compound treatment. The increase in AJ mRNA is reported as AC50 (compound concentration having […] in AJ increase) while the decrease in CJ mRNA levels is reported as IC50 (compound concentration having 50) response in CJ decrease).
(§3) Additional studies were carried out for a larger panel of genes using the protocol provided above. The junction between flanking upstream and downstream exons was used to design canonical junction qPCR assays. At least one of the forward primer, reverse primer or the CY5-labeled 5′ nuclease probe (with 3′ quencher such as ZEN/Iowa Black FQ) was designed to overlap with the exon junction to capture the CJ mRNA transcript. BLAST was used to confirm the specificity of the probeset and parameters such as melting temperature, GC content, amplicon size, and primer dimer formation are considered during their design. Data for the decrease in CJ mRNA levels for four exemplary genes (HTT, SMN2, MYB, and Target C) analyzed in this panel are reported as IC50 (compound concentration having […] in CJ decrease).
(§4) A summary of the results from the panel is illustrated in Tables 5A and 51B, wherein “A” represents an IC50 of less than 100 nM; “B” represents an IC50 of between 100 nM and 1 μM; and “C” represents an IC50 of between 1 μM and 10 μM; and “D” represents an IC50 of greater than 10 μM.

HTT mRNA [1] = experiment: Gene panel canonical junction qPCR assay, HTT CJ mRNA decrease; format: cell-based, human; settings: Homo sapiens
Method: as §1, §2, §3, §4

MYB mRNA [2] = experiment: Gene panel canonical junction qPCR assay, MYB CJ mRNA decrease; format: cell-based, human; settings: Homo sapiens
Method: as §1, §2, §3, §4

MYB mRNA [3] = experiment: Splicing RT-qPCR assay, MYB canonical (CJ) and alternative (AJ) junction mRNA; format: cell-based; settings: Homo sapiens, A673 or K562 cells, 24 hours; for IC50: decrease in canonical junction mRNA; for AC50: increase in alternative junction mRNA
Method: as §1
(§5) • Cells-to-CT 1-step kit: ThermoFisher A25602, Cells-to-CT lysis reagent: ThermoFisher 4391851C, TaqMan™ Fast Virus 1-Step Master Mix: ThermoFisher 4444436 • GAPDH: VIC-PL, ThermoFisher 4326317E (Assay: Hs99999905_ml)—used for K562/suspension cell lines • GUSB: VIC-PL, ThermoFisher 4326320E (Assay: Hs99999908_ml)—used for K562/suspension cell lines • PPIA: VIC-PL, ThermoFisher 4326316E (Assay: Hs99999904_ml)—used for A673/adherent cell lines
(§6) The A673 cell line was cultured in DMEM with 10% FBS. Cells were diluted with full growth media and plated in a 96-well plate (15,000 cells in 100 ul media per well). The plate was incubated at 37° C. with 5% CO2 for 24 hours to allow cells to adhere. An 11-point 3-fold serial dilution of the compounds was made in DMSO then diluted in media in an intermediate plate. Compounds were transferred from the intermediate plate to the cell plate with the top dose at a final concentration of 10 uM in the well. Final DMSO concentration was kept at or below 0.25%. The cell plate was returned to the incubator at 37° C. with 5% CO2 for an additional 24 hours.
(§7) The K562 cell line was cultured in IMDM with 10% FBS. For K562, cells were diluted with full growth media and plated in either a 96-well plate (50,000 cells in 50 uL media per well) or a 384-well plate (8,000-40,000 cells in 45 uL media per well). An 11-point 3-fold serial dilution of the compounds were made in DMSO then diluted in media in an intermediate plate. Compound was transferred from the intermediate plate to the cell plate with the top dose at a final concentration of 10 uM in the well. Final DMSO concentration was kept at or below 0.25%. Final volume was 100 uL for 96-well plate and 50 uL for 384-well plate. The cell plate was then placed in an incubator at 37° C. with 5% CO2 for 24 hours.
(§8) The cells were then gently washed with 50 uL-100 uL cold PBS before proceeding to addition of lysis buffer. 30 uL-50 uL of room temperature lysis buffer with DNAse I (and optionally RNAsin) was added to each well. Cells were shaken/mixed thoroughly at room temperature for 5-10 minutes for lysis to take place and then 3 uL-5 uL of room temperature stop solution was added and wells were shaken/mixed again. After 2-5 minutes, the cell lysate plate was transferred to ice for RT-qPCR reaction setup. The lysates could also be frozen at −80° C. for later use.
(§9) In some cases, a direct lysis buffer was used. An appropriate volume of 3×lysis buffer (10 mM Tris, 150 mM NaCl, 1.5%-2.5% Igepal and 0.1-1 U/uL RNAsin, pH 7.4) was directly added to either K562 or A673 cells in media and mixed by pipetting 3 times. The plates were then incubated at room temperature with shaking/rocking for 20-50 minutes to allow for lysis to take place. After this time, the cell lysate plate was transferred to ice to set up for the RT-qPCR reactions. The lysates could also be frozen at −80° C. for later use. […]

HTT mRNA [4] = experiment: Splicing RT-qPCR assay, HTT canonical (CJ) and alternative (AJ) junction mRNA; format: cell-based; settings: Homo sapiens, A673 or K562 cells, 24 hours; for IC50: decrease in canonical junction mRNA; for AC50: increase in alternative junction mRNA
Method: as §1, §5, §6, §7, §8, §9

Target C mRNA = experiment: Gene panel canonical junction qPCR assay, Target C CJ mRNA decrease; format: cell-based; settings: Homo sapiens
Method: as §1, §2, §3, §4

[5] = canonical junction qPCR, read-out: SMN2 IC50 (decrease in CJ mRNA levels)
[6] = canonical junction qPCR, read-out: HTT IC50 (decrease in CJ mRNA levels)
[7] = canonical junction qPCR, read-out: MYB IC50 (decrease in CJ mRNA levels)
[8] = canonical junction qPCR, read-out: Target C IC50 (decrease in CJ mRNA levels)
[9] = decrease in CJ mRNA levels, read-out: SMN2 IC50
[10] = decrease in CJ mRNA levels, read-out: HTT IC50
[11] = decrease in CJ mRNA levels, read-out: MYB IC50
[12] = decrease in CJ mRNA levels, read-out: Target C IC50

| IC50 (SMN2 mRNA; [5]) [µM] | IC50 (HTT mRNA [1]; [6]) [µM] | IC50 (MYB mRNA [2]; [7]) [µM] | IC50 (MYB mRNA [3]) [µM] | IC50 (HTT mRNA [4]) [µM] | IC50 (Target C mRNA; [8]) [µM] | IC50 (SMN2 mRNA; [9]) [µM] | IC50 (HTT mRNA [1]; [10]) [µM] | IC50 (MYB mRNA [2]; [11]) [µM] | IC50 (Target C mRNA; [12]) [µM] | SMILES | AC50 (MYB mRNA [3]) [µM] | AC50 (HTT mRNA [4]) [µM] |
| --- | --- | --- | --- | --- | --- | --- | --- | --- | --- | --- | --- | --- |
| 1 to 10 | 1 to 10 | 1 to 10 | 1 to 10 | 1 to 10 | 1 to 10 |  |  |  |  | CNC1[C@@H]2C[C@H]1N(c1ccc(C(=O)Nc3cc(F)c4nc(C)cn4c3)c3nnccc13)C2 (stereo partly shown) [Compound 148] | 1 to 10 | 1 to 10 |
| < 0.1 | 1 to 10 | < 0.1 | < 0.1 | 1 to 10 | 1 to 10 |  |  |  |  | Cc1cn2cc(NC(=O)c3ccc(N4CCN[C@@H](C)C4)c4ccnnc34)cc(F)c2n1 [Compound 147] | < 0.1 | 1 to 10 |
| < 0.1 | 1 to 10 | 0.1 to 1 | 0.1 to 1 | 1 to 10 | > 10 |  |  |  |  | Cc1cn2cc(NC(=O)c3ccc(N4CC5(CN(C)C5)C4)c4ccnnc34)cc(F)c2n1 [Compound 132] | 0.1 to 1 | 1 to 10 |
| < 0.1 | > 10 | 0.1 to 1 | 0.1 to 1 | > 10 | > 10 |  |  |  |  | CCc1cc2c(N3CCNCC3)ccc(C(=O)Nc3cc(F)c4nc(C)cn4c3)c2nn1 [Compound 185, 3-ethyl-N-{8-fluoro-2-methylimidazo[1,2-a]pyridin-6-yl}-5-(piperazin-1-yl)cinnoline-8-carboxamide] | 0.1 to 1 | > 10 |
| < 0.1 | > 10 | 1 to 10 | 1 to 10 | > 10 | > 10 |  |  |  |  | Cc1cn2cc(NC(=O)c3ccc(N4C[C@@H](C)N[C@@H](C(C)C)C4)c4nccnc34)cc(F)c2n1 [Compound 264, N-{8-fluoro-2-methylimidazo[1,2-a]pyridin-6-yl}-8-[(3S,5R)-3-isopropyl-5-methylpiperazin-1-yl]quinoxaline-5-carboxamide 2,2,2-trifluoroacetate] | 0.1 to 1 | > 10 |
| 0.1 to 1 | > 10 | 1 to 10 | 1 to 10 | > 10 | > 10 |  |  |  |  | Cc1cn2cc(NC(=O)c3c(F)cc(N4CCNCC4)c4ccnnc34)cc(F)c2n1 [Compound 350] | 1 to 10 | > 10 |
|  |  |  |  |  |  | 0.1 to 1 | > 10 | 0.1 to 1 | 1 to 10 | Cc1cn2cc(NC(=O)c3sc(N4CCNC(C)C4)cc3F)ncc2n1 (stereo not shown) [Compound 640] |  |  |
|  |  |  |  |  |  | 1 to 10 | 0.1 to 1 | < 0.1 | 1 to 10 | Cc1cn2nc(NC(=O)c3sc([C@H]4CCN[C@H](C)C4)cc3F)cc(C)c2n1 [Compound 578] |  |  |
|  |  |  |  |  |  | 1 to 10 | 0.1 to 1 | < 0.1 | 0.1 to 1 | Cc1cn2cc(NC(=O)c3sc([C@@H]4CCN[C@@H](C)C4)cc3F)cc(F)c2n1 [Compound 591] |  |  |
|  |  |  |  |  |  | 1 to 10 | > 10 | 1 to 10 | 1 to 10 | Cc1cn2cc(NC(=O)c3sc(C4CCN(C)CC4)cc3F)cc(F)c2n1 [Compound 618] |  |  |
|  |  |  |  |  |  | > 10 | > 10 | 1 to 10 | > 10 | Cc1cn2cc(NC(=O)c3ccc(C4CCNCC4)s3)cc(F)c2n1 [Compound 647] |  |  |
|  |  |  |  |  |  | 1 to 10 | 0.1 to 1 | 0.1 to 1 | 1 to 10 | Cc1cn2cc(NC(=O)c3sc([C@H]4CCN[C@H](C)C4)cc3F)cc(F)c2n1 [Compound 592] |  |  |
|  |  |  |  |  |  | > 10 | > 10 | 0.1 to 1 | 1 to 10 | CC1CC(c2cc(F)c(C(=O)Nc3ccc4cn(C)nc4c3)s2)CCN1 (stereo not shown) [Compound 624] |  |  |
|  |  |  |  |  |  | > 10 | 1 to 10 | 0.1 to 1 | > 10 | Cc1cn2cc(NC(=O)c3sc(N4CCC(N(C)C)CC4)cc3F)cc(F)c2n1 [Compound 613] |  |  |
|  |  |  |  |  |  | 0.1 to 1 | 0.1 to 1 | < 0.1 | 0.1 to 1 | Cc1cn2nc(NC(=O)c3sc([C@@H]4CCN[C@H](C)C4)cc3F)cc(C)c2n1 [Compound 576] |  |  |
|  |  |  |  |  |  | > 10 | > 10 | 1 to 10 | > 10 | Cc1cn2cc(NC(=O)c3sc(N4CCC(NC(C)(C)C)CC4)cc3F)cc(F)c2n1 [Compound 614] |  |  |
|  |  |  |  |  |  | > 10 | > 10 | 1 to 10 | > 10 | Cc1cn2cc(NC(=O)c3sc(N4CCNC(C)C4)cc3F)nc2c(C)n1 (stereo not shown) [Compound 641] |  |  |
|  |  |  |  |  |  | 1 to 10 | 0.1 to 1 | < 0.1 | 1 to 10 | Cc1cn2cc(NC(=O)c3cc(Cl)c(N4CCNC(C)C4)s3)cc(F)c2n1 (stereo not shown) [Compound 660] |  |  |
|  |  |  |  |  |  | 1 to 10 | 0.1 to 1 | 0.1 to 1 | 1 to 10 | Cc1cn2cc(NC(=O)c3sc(C4CC(C)(C)NC(C)(C)C4)cc3F)cc(F)c2n1 [Compound 621] |  |  |
